Counter-ions that a name gives are not always drawn.
How the values were obtained:
PTZ-induced convulsions = details: mice, i.p.; safranal 0.15 and 0.35 ml/kg body weight, crocin 22 mg/kg; cited from earlier work
[1] = tested on: morphine-induced place preference; details: i.p.; extract 10, 50 and 100 mg/kg, safranal 1, 5 and 10 mg/kg; cited from earlier work
brain dopamine = brain dopamine concentration by ELISA; format: in vivo, Male Wistar rats; details: i.p., 30 min after injection; fluoxetine 10 mg/kg, desipramine 50 mg/kg, Raphanus extract up to 256 mg/kg (most potent)
Method: (§1) Male Wistar rats (250-300 g, Amman-Jordan) were used throughout the study (8 rats for each experiment). Animals were housed in groups of 4/cage in a 12/12 h light-cycle (lights on at 07.00 a.m.), with ad-lib food and water available. The animals were randomly allocated to different groups of the experiment. All experiments were conducted in accordance with standard ethical guidelines and approved by the local ethical Committee University of Medical Committee on the Use and Care of Animals, 81/021, Jul. 10, 2011 (Petra University, Amman, Jordan)).
(§2) Fluoxetine hydrochloride [N-methyl-3-[(4-trifluoromethyl) phenoxy]-3-phenylpropylamine hydrochloride] and desipramine hydrochloride [10-11-dihydro-N-methyl-5H-dibenz (Z) [b, f] azepine-5-propanamine hydrochloride] (TOCRIS Bioscience, UK) were dissolved in sterile saline and administered intraperitoneally at a concentration of 1 ml/kg; the extract was prepared immediately before use. The control groups were administered saline.
(§3) The Raphanus sativus extract used was prepared in Jordan. To prepare the extract, 100 g of dried and milled […] was extracted with 1000 ml distilled water by maceration. […] The extract was dissolved in normal saline and immediately administered to the animals. […]

brain serotonin = brain serotonin concentration by ELISA; format: in vivo, Male Wistar rats; details: i.p., 30 min after injection; fluoxetine 10 mg/kg, desipramine 50 mg/kg, Raphanus extract 2-256 mg/kg; vs saline
Method: as §1, §2, §3

SMILES: CC(/C=C/C=C(\C)C(=O)O[C@@H]1O[C@H](CO[C@@H]2O[C@H](CO)[C@@H](O)[C@H](O)[C@H]2O)[C@@H](O)[C@H](O)[C@H]1O)=C\C=C\C=C(C)\C=C\C=C(/C)C(=O)O[C@@H]1O[C@H](CO[C@@H]2O[C@H](CO)[C@@H](O)[C@H](O)[C@H]2O)[C@@H](O)[C@H](O)[C@H]1O [Crocin, crocin]
- anticonvulsant activity (PTZ-induced convulsions): did not show anticonvulsant activity

SMILES: CC1=C(C=O)C(C)(C)CC=C1 [Safranal, safranal]
- acquisition and expression of morphine CPP [1]: The same results were obtained
- anticonvulsant activity (PTZ-induced convulsions): reduced the seizure duration, delayed the onset of tonic convulsions, and protected mice from death

SMILES: CNCCCN1c2ccccc2CCc2ccccc21 [desipramine, 10-11-dihydro-N-methyl-5H-dibenz (Z) [b, f] azepine-5-propanamine hydrochloride]
- dopamine concentration in the brain (brain dopamine): can increase dopamine concentration in the brain
- brain serotonin levels (brain serotonin): neither desipramine nor Raphanus extract can increase brain serotonin levels

SMILES: CNCCC(Oc1ccc(C(F)(F)F)cc1)c1ccccc1 (stereo not shown) [fluoxetine, N-methyl-3-[(4-trifluoromethyl)phenoxy]-3-phenylpropylamine hydrochloride]
- dopamine concentration in the brain (brain dopamine): can increase dopamine concentration in the brain
- brain serotonin levels (brain serotonin): can increase brain serotonin levels significantly

Source: patent US9821018B2, “Composition comprising Raphanus, Theobroma and Passiflora for treating opioid and alcohol abuse” (priority 2012, dated 2017)
